Read-outs that look alike come from different tables or passages of the source.
Experiments:
BCL-XL [1] = biological target: T1, BCL-XL (Homo sapiens, UniProt Q07817); test: 1D 1H-NMR binding assay; set-up: key to 1D-^1H NMR: +++, Very Active; ++, Active; +, Mild; −, Weak; conditions: for 1D-^1H NMR: Table 3, BCL-XL 25 μM, compound 200 μM; for 1D ^1H-NMR Binding Assay (BCL-XL): Table 9
Procedure: By observing the aliphatic region of the spectra, binding could be readily detected due to chemical shift changes in active site methyl groups of Ile, Leu, Thr, Val or Ala (region between −0.8 and 0.3 ppm). All experiments were performed with a 600 MHz spectrometer Bruker Avance 600 equipped with four rf channels and z-axis pulse-field gradients.
Target sequence in this assay (Q07817 whole entry): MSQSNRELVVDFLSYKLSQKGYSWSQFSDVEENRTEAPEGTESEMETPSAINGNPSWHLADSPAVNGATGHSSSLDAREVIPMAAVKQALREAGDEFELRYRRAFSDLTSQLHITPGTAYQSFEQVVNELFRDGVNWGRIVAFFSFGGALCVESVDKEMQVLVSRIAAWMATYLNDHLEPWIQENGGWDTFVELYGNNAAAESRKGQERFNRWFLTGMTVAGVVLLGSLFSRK

Bcl-2 = Bcl-2 (Homo sapiens, UniProt P10415); test: Competitive fluorescence polarization assay (FPA), Bim BH3 peptide; format: binding
Mcl-1 = Mcl-1 (Homo sapiens, UniProt Q07820); test: as above; format: binding
Bfl-1 = biological target: T2, Bfl-1 (Homo sapiens, UniProt Q16548); test: Competitive fluorescence polarization assay (FPA); format: binding
T2 sequence (Q16548 1-175): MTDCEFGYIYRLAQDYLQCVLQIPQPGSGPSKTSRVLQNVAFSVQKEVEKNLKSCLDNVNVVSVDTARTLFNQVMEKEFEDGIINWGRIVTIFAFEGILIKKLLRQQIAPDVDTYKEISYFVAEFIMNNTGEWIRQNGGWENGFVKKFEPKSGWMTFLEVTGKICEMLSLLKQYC

BCL-XL [2] = biological target: T1, BCL-XL; test: Isothermal titration calorimetry (ITC); format: binding; conditions: for times more potent than Apogossypol, ITC Bcl-XL: vs Apogossypol
Procedure: Titrations were performed using a VP-ITC or ITC200 calorimeter from Microcal (Northampton, Mass.). BCL-XL was used at concentrations between 25 and 100 μM in 20 mM sodium phosphate buffer (pH 7.4) and 5-10% DMSO. Titrants were used at concentrations 10-15 fold of that of the protein in the same buffer. Titrations were carried out at 25° C. Data were analyzed using Microcal Origin software provided by the ITC manufacturer (Microcal, Northampton, Mass.).
Target sequence in this assay (Q07817 whole entry): as the sequence (Q07817 whole entry) above

H1299 cell line = test: Cell viability, ATP-LITE assay; format: cell-based, human
In short: (§1)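 Human cancer lines were seeded at 2000 (H460, H1299), 3000 (PC3) or 10,000 (RS11846) cells/well in F12 or RPMI1640 with 5% FBS. Compounds were added in 0.1% DMSO 24 h after seeding. Viability was read by ATP-LITE luminescence after 72 h and normalized to DMSO controls.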

PC3ML cells = test: Cell viability, ATP-LITE assay; format: cell-based, human
In short: as §1

[3] = system: H460 human lung cell line; test: Cell viability, ATP-LITE assay; format: cell-based; conditions: for IC50: read-out: IC50 inhibiting cell growth, H460; for times more potent than Apogossypol, H460: vs Apogossypol
In short: as §1

[4] = system: human lymphoma RS11846 cell line; test: Apoptosis, Annexin V-FITC and propidium iodide assay; format: cell-based
[5] = system: BP3 human B-cell lymphoma cell line; test: Annexin V-FITC and propidium iodide assay; format: cell-based; conditions: for EC50: Annexin V-FITC and propidium iodide assay, read-out: EC50 BP3
[6] = system: Bax/Bak double knockout mouse embryonic fibroblast cells (MEF/DKO); test: FITC-Annexin V/PI cytotoxicity in Bax/Bak double knockout cells; format: cell-based; conditions: 10 μM
Procedure: MEF/WT and MEF/DKO cells were seeded in 24-well plate at a seeding density of half a million per well (in 1 ml of DMEM medium supplemented by 10% FCS). […] On the following day, floating cells were pooled with adherent cells harvested after brief incubation with 0.25% Trypsin/EDTA solution (Gibco/In-Vitrogen Inc.). Cells were centrifuged and supernatant was discarded, and cell pellet was re-suspended with 0.2 ml of Annexin-V binding buffer, followed by addition of 1 μl Annexin-FITC and 1 μl PI (propidium iodide). The percentage of viable cells was determined by a 3-color FACSort instrument and data analyzed by Flow-Jo program, scoring Annexin V-negative, PI-negative as viable cells.

[7] = Chemical stability of solid compounds at room temperature (HPLC, LCMS); conditions: in air, Apogossypol in the absence of ascorbic acid
Source text: The stability of compound was monitored using a combination of HPLC and LCMS.

Plasma stability = format: in vitro ADME, rat; conditions: for Plasma stability (T = 1 h): Table 6, rat plasma
Procedure: Plasma Stability. A 20 μL aliquot of a 10 mM solution in DMSO of the test compound was added to 2.0 mL of heparinized rat plasma (Lampire, P1-150N) to obtain a 100 μM final solution. The mixture was incubated for 1 h at 37.5° C. Aliquots of 100 μL were taken (0, 30 min, 1 h) and diluted with 200 μL of MeOH containing internal standard.

[8] = Liver microsomal stability; format: in vitro ADME, rat; conditions: Table 6; rat liver microsomes, 1 h
Source text: Liver Microsomal Stability.

B6Bcl-2 transgenic mice = conditions: for Tox: Bcl-2 transgenic mouse, single ip injection 72 μmol/kg; for percentage of maximum reduction in spleen weight (maximal biological activity): maximum shrinkage no more than 50%
In short: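 B6 line BCL-2 transgenic mice (human BCL-2 fused to IgH locus/enhancer, Balb/c background) sacrificed 24 h post-treatment by lethal i.p. Avertin. Spleen removed and weighed, fixed 3 days in z-FIX for H&E and TUNEL histology.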

BCL-XL [9] = biological target: T1, BCL-XL; test: Competitive fluorescence polarization assay (FPA), Bak BH3 peptide; format: binding; set-up: 100 nM GST-BCL-XL ΔTM protein; conditions: for times more effective than Apogossypol, FP Bcl-XL: vs Apogossypol
In short: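 100 nM GST-BCL-XL ΔTM preincubated with compound in PBS pH 7.4 for 10 min at room temperature, then FITC-Bak BH3 peptide added. Polarization read after 10 min. IC50 from sigmoidal dose-response fit; mean ± SE of three independent experiments.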
Target sequence in this assay (Q07817 1-209 limits assumed): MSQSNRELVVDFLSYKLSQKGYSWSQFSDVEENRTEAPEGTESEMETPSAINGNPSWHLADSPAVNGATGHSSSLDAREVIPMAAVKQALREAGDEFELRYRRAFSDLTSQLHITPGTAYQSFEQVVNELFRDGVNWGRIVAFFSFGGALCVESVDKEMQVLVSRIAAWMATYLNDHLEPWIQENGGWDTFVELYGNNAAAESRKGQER

Balb/c mice = system: Balb/c mice
Source text: Upon conclusion of the study, mice were euthanized by CO2, and vital organs were harvested and fixed with z-FIX solution for 3 days at room temperature, rinsed in PBS three times, for further histological evaluation.

RS11846 cell line = test: Cell viability, ATP-LITE assay; format: cell-based; conditions: Homo sapiens, Table 9; read-out: RS11846 EC50 (ATP-LITE assay)
In short: as §1

[10] = PAMPA cell membrane permeability; format: in vitro ADME; conditions: Table 11; Low/Medium, not defined
Source text: PAMPA is parallel artificial membrane permeation assay.

BCL-2 transgenic mice = test: Oral efficacy study in BCL-2 transgenic mice, QDx5 for 3 weeks; conditions: low dose 0.06 mmol/kg oral
Procedure: The volume of administration was 10 ml/kg, i.e., typically 0.2 mL per 20 gm mouse. […] Age-matched, sex-matched mice were typically dosed 5 times weekly, using a regiment of daily dosing 5 consecutive days (Monday through Friday), followed by resting for 2 days, before resuming dosing. […] At conclusion of treatments, mice were sacrificed via intra-peritoneal (i.p.) injection of 0.7 ml of Avertin and whole blood was collected into Yellow-Top Serum Separator tubes (Becton Dickinson Vacutainer Systems Becton Dickinson and Company, Franklin Lakes, N.J. 07417-1885). Spleens were removed and weighed.
Age-matched and sex-matched BCL-2 transgenic mice were used for efficacy studies. BCL-2 transgenic mice spontaneously developed low grade B-cell lymphoma as characterized by splenomegaly, as a function of time. In BCL-2 transgenic mice, the disease progression can be divided into two stages; at the first stage, the disease is characterized by splenomegaly as a result of expansion of B-cells in spleen due to over-expressed BCL-2 in B6 mice, and at the second stage, another genetic hit(s) may strike, resulting in disseminated lymphoma as characterized by bulky lymphadenopathy as well as splenomegaly.
In this study, BCL-2 transgenic mice at the first stage were used for this efficacy study. […] At conclusion of treatment, BCL-2 transgenic mice were sacrificed via intraperitoneal injection of 0.7 ml of avertin (anesthetic solution) and spleen was removed and weighed. Splenocytes were isolated by the use of mouse erythrocyte lysing kit (RD Systems). Total splenocyte count was determined by trypane blue exclusion assays. % B-cell count was determined by FACS analysis after staining cells with CD-5, a B-cell marker.

[11] = Homo sapiens, NCI-H1299, Table 9, read-out: H1299 EC50
[12] = Homo sapiens, NCI-H460, Table 9, read-out: H460 EC50
[13] = Homo sapiens, Table 9, read-out: RS11846 EC50 (Annexin V- and propidium iodide assay)
[14] = Table 9, read-out: FPA IC50 (BCL-XL)

Sequence of Mcl-1 (Q07820 whole entry): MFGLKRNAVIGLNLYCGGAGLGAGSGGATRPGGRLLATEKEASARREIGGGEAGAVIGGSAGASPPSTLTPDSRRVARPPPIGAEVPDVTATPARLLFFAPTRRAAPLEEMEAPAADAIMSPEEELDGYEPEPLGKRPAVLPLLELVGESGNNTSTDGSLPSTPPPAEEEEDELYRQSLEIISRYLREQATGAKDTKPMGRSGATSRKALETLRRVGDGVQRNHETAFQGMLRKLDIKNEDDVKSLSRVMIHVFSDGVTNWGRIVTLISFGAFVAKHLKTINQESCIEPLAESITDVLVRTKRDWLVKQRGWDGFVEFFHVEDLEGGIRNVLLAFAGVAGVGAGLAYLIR
Sequence of Bcl-2 (P10415 whole entry): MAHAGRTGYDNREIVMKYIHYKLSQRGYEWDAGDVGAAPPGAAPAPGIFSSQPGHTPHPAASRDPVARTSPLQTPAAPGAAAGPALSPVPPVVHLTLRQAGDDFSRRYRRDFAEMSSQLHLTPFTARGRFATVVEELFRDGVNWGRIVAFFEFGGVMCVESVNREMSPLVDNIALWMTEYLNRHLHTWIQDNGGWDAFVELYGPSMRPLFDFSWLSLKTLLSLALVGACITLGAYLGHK

Row | SMILES | 1D-^1H NMR (BCL-XL [1]) | IC50 ([3]; Homo sapiens, NCI-H460) [nM] | MEF/DKO cells killed [6] | degraded after 60 days at room temperature [7] [%] | Plasma stability (T = 1 h) (Plasma stability) [%] | Microsomal Stability (T = 1 h) [8] [%] | Tox (B6Bcl-2 transgenic mice) | times more potent than Apogossypol, ITC Bcl-XL (BCL-XL [2]) | times more potent than Apogossypol, H460 [3] | percentage of maximum reduction in spleen weight (maximal biological activity) (B6Bcl-2 transgenic mice; single ip 72 μmol/kg) | times more effective than Apogossypol, FP Bcl-XL (BCL-XL [9]) | 1D ^1H-NMR Binding Assay (BCL-XL) (BCL-XL [1]) | EC50 (H1299 cell line; [11]) [µM] | EC50 [3, 12] [nM] | EC50 (RS11846 cell line) [nM] | EC50 [4, 13] [µM] | Cell Permeability [10] | IC50 (BCL-XL [9]; [14]) [nM] | further results
1 | CCc1ccc(CCNC(=O)c2c(O)c(O)cc3c(O)c(-c4c(C)cc5c(C(=O)NCCc6ccc(CC)cc6)c(O)c(O)cc5c4O)c(C)cc23)cc1 [Compound 8q, N^5,N^5′-bis(4-ethylphenethyl)-1,1′,6,6′,7,7′-hexahydroxy-3,3′-dimethyl-2,2′-binaphthyl-5,5′-dicarboxamide] | +++ | 400 | 20-35% | 10 | 94 | 87 | 4+ | – | – | – | – | – | – | – | – | – | – | – | IC50 (Bcl-2): 670 nM; IC50 (Mcl-1): 590 nM; IC50 (Bfl-1): 1300 nM; Kd (BCL-XL [2]): 120 nM; EC50 (H1299 cell line; Homo sapiens, NCI-H1299, Table 3, ATP-LITE assay, read-out: EC50 H1299): 0.36 µM; IC50 (H1299 cell line; Homo sapiens, NCI-H1299, read-out: IC50 cell inhibition, H1299): 360 nM; EC50 (PC3ML cells; Homo sapiens, PC3-ML, Table 3, ATP-LITE assay, heading: EC50 PC3ML, read-out: EC50 PC3ML): 1.7 µM; EC50 ([3]; Homo sapiens, NCI-H460, Table 3, ATP-LITE assay, read-out: EC50 H460): 400 nM; EC50 ([4]; Homo sapiens, Annexin V-FITC and propidium iodide assay, read-out: EC50 RS11846): 3 to 5.8 µM; EC50 ([4]; Homo sapiens, Table 3, Annexin V-FITC and propidium iodide assay, heading: EC50 RS11846, read-out: EC50 RS11846): 3 µM; EC50 ([5]; Homo sapiens, B-cell, Table 3): 200 nM; IC50 ([5]; Homo sapiens, B-cell, read-out: IC50 inhibiting cell growth, BP3): 200 nM; IC50 (BCL-XL [9]; read-out: IC50 FPA Bcl-XL): 930 nM
2 | Cc1cc2c(C(=O)NCC(C)c3ccccc3)c(O)c(O)cc2c(O)c1-c1c(C)cc2c(C(=O)NCC(C)c3ccccc3)c(O)c(O)cc2c1O (stereo not shown) [Compound 8r, 1,1′,6,6′,7,7′-hexahydroxy-3,3′-dimethyl-N^5,N^5′-bis(2-phenylpropyl)-2,2′-binaphthyl-5,5′-dicarboxamide] | ++ | 330 | 20-35% | 10 | 96 | 76 | – | 15 | 7-10 | 85-95% | 5 | – | – | – | – | – | – | – | times more potent than Apogossypol, FP Bfl-1 (Bfl-1; vs Apogossypol): approximately 10; EC50 ([5]; Homo sapiens, B-cell): 660 nM; times more potent than Apogossypol, BP3 ([5]; vs Apogossypol): 7-10; degraded after 1 hour incubation in rat plasma (Plasma stability; 1 hour): 4%; GI toxicity (B6Bcl-2 transgenic mice; B6Bcl-2 transgenic (Balb/c background), mouse, in vivo, 42 mg/kg, 24 h): mild signs of GI toxicity; average weight loss of mice (B6Bcl-2 transgenic mice; mouse, in vivo, 42 mg/kg): 7.8%; spleen weight reduction (B6Bcl-2 transgenic mice; single mouse, single ip 72 μmol/kg): more than 40%; weight loss (Balb/c mice; mouse, in vivo, ip, 50 mg/kg): around 13%; mortality (Balb/c mice; single ip 100, 75, 50, 25 and 12.5 mg/kg, 14 days): All mice were alive after 14 days
3 | Cc1cc2c(C(=O)Cc3ccccc3)c(O)c(O)cc2c(O)c1-c1c(C)cc2c(C(=O)Cc3ccccc3)c(O)c(O)cc2c1O [Compound I, 1,1′-(1,1′,6,6′,7,7′-hexahydroxy-3,3′-dimethyl-2,2′-binaphthyl-5,5′-diyl)bis(2-phenylethanone)] | – | – | – | – | – | – | – | 10 | 4-5 | – | ~20 | +++ | 3.5 | 680 | 2600 | 3 to 5.5 | Medium | 190 | times/fold more potent than Apogossypol, FP Bcl-2 (Bcl-2; vs Apogossypol): approximately 8; times/fold more potent than Apogossypol, FP Mcl-1 (Mcl-1; vs Apogossypol): ~5; fold more potent than Apogossypol, PC3ML (PC3ML cells; vs Apogossypol): 2-5; reduction of spleen weight (B6Bcl-2 transgenic mice; groups of six mice, compound I): ~40%; reduction in spleen weight (B6Bcl-2 transgenic mice; single BCL-2 transgenic mouse, 60 μmmol/kg): 40%
4 | Cc1cc2c(C(=O)c3nc4ccccc4s3)c(O)c(O)cc2c(O)c1-c1c(C)cc2c(C(=O)c3nc4ccccc4s3)c(O)c(O)cc2c1O [Compound XVII, (1,1′,6,6′,7,7′-hexahydroxy-3,3′-dimethyl-2,2′-binaphthyl-5,5′-diyl)bis(benzo[d]thiazol-2-ylmethanone)] | – | – | – | – | – | – | – | – | – | – | – | + | 5.8 | 1400 | 2900 | 7 | Medium | 140 to 450 | EC50 (PC3ML cells; Homo sapiens, PC3-ML, Table 9, read-out: PC3ML EC50): 5.2 µM
5 | CC(=O)O.Cc1cc2c(C(C)C)c(O)c(O)c(C=O)c2c(O)c1-c1c(C)cc2c(C(C)C)c(O)c(O)c(C=O)c2c1O [Gossypol, reference compound] | +++ | – | – | – | – | – | 2+ | – | – | 40% | – | ++ | – | – | – | – | – | – | EC50 (H1299 cell line; Table 3, ATP-LITE assay, heading: EC50 H1299, read-out: EC50 H1299): 6 µM; EC50 (PC3ML cells; Table 3, ATP-LITE assay, heading: EC50 PC3ML, read-out: EC50 PC3ML): 3.1 µM; EC50 ([3]; Table 3, ATP-LITE assay, heading: EC50 H460, read-out: EC50 H460): 3000 nM; EC50 ([4]; Table 3, Annexin V-FITC and propidium iodide assay, heading: EC50 RS11846, read-out: EC50 RS11846): 4.2 µM; EC50 ([5]; Table 3, heading: EC50 BP3): 1420 nM; shrinkage of spleen (BCL-2 transgenic mice): induced shrinkage of spleen to a considerable extent but not significantly; tolerability (BCL-2 transgenic mice): well tolerated

From US8039668B2, “Naphthalene-based inhibitors of anti-apoptotic proteins” (Burnham Institute for Medical Research, priority 2008, dated 2011)
